Laboratory results as given in patent publication US20220175925A1, “PHARMACEUTICAL COMPOSITION FOR PREVENTING OR TREATING TREATMENT-RESISTANT CANCER” (JIMRO CO., LTD., priority 2019, published 2022).

Experiments:
Type in all cases: cell-based
C8166 ATL cell line = assay: PDT using 5-ALA, cell survival rate by Cell Counting Kit-8, C8166; details: for EC50: Homo sapiens, C8166, light or radiation study, 4 h, C8166, 5-ALA loaded 4 hours
Text: (§1) ATN-1, C8166, TL-Om1, Hut102, and MT-1 were used as ATL cell lines. Among them, lenalidomide-sensitive cell line was Hut102 and lenalidomide-resistant cell line was C8166. The sensitivity of ATN-1, TL-Om1, and MT-1 to lenalidomide was unknown. Meanwhile, tretinoin-sensitive cell line was C8166 and tretinoin-resistant cell line was Hut102. The sensitivity of ATN-1, TL-Om1, and MT-1 to tretinoin was unknown. In addition, mogamulizumab-sensitive cell lines were ATN-1, TL-Om1, and MT-1, and mogamulizumab-resistant cell line was Hut102. The sensitivity of C8166 to mogamulizumab was unknown. These cells were passaged and cultured. For the experiment, cells were prepared to a density of 1×10^6 cells/ml at the beginning of the experiment.
(§2) To the cell suspension, 5-ALA was added at concentrations of 0, 0.0625, 0.125, 0.25, and 0.5 mM and loaded for 4 hours. The cell after 5-ALA loading was washed and irradiated with light (0, 10, 30, and 100 J/cm^2) at a central wavelength of 630 nm, and cell survival rate (%) was calculated by Cell Counting Kit-8.

ATN-1 ATL cell line = assay: PDT using 5-ALA, cell survival rate by Cell Counting Kit-8, ATN-1; details: Homo sapiens, ATN-1, light or radiation study, 4 h, 5-ALA loaded 4 hours
Text: as §1, §2

TL-Om1 ATL cell line = assay: PDT using 5-ALA, cell survival rate by Cell Counting Kit-8, TL-Om1; details: light or radiation study, 4 h, 5-ALA loaded 4 hours
Text: as §1, §2

[1] = tested on: K562/ADR doxorubicin-resistant CML cell line; assay: PDT using 5-ALA, cell survival rate by Cell Counting Kit-8, K562/ADR
Method: (§3) LAMA84-r was used as imatinib-resistant CML cell line and the original cell line LAMA84-s (imatinib-sensitive) was used as a comparative control. In addition, K562/ADR was used as doxorubicin-resistant CML cell line and the original cell line K562 (doxorubicin-sensitive) was used as a comparative control. These cells were passaged and cultured. For the experiment, cells were prepared to a density of 1×10^6 cells/ml at the beginning of the experiment.
as §2

MT-1 ATL cell line = assay: PDT using 5-ALA, cell survival rate by Cell Counting Kit-8, MT-1; details: light or radiation study, 4 h, 5-ALA loaded 4 hours
Text: as §1, §2

Hut102 ATL cell line = assay: PDT using 5-ALA, cell survival rate by Cell Counting Kit-8, Hut102; details: for EC50: HuT-102, light or radiation study, 4 h, Hut102, 5-ALA loaded 4 hours
Text: as §1, §2

[2] = tested on: LAMA84-r imatinib-resistant CML cell line; assay: PDT using 5-ALA, cell survival rate by Cell Counting Kit-8, LAMA84-r
Method: as §3, §2

Compound: NCC(=O)CCC(=O)O [5-ALA, 5-aminolevulinic acid]
- cell killing by PDT using 5-ALA (C8166 ATL cell line; C8166, lenalidomide-resistant cell line, FIG. 1): killed
- EC50 (C8166 ATL cell line; 10 J/cm^2 at 630 nm): 113 µM
- EC50 (C8166 ATL cell line; 30 J/cm^2 at 630 nm): 87 µM
- EC50 (C8166 ATL cell line; 100 J/cm^2 at 630 nm): 77 µM
- cell killing effect of PDT using 5-ALA relative to sensitive cell line (C8166 ATL cell line; lenalidomide-resistant C8166 versus lenalidomide-sensitive Hut102): comparable
- cell killing effect of PDT using 5-ALA relative to sensitive cell line (C8166 ATL cell line; tretinoin-resistant cell line C8166 versus tretinoin-sensitive cell line Hut102 (so in the source)): comparable
- EC50 (ATN-1 ATL cell line; 10 J/cm^2 at 630 nm): 113 µM
- EC50 (ATN-1 ATL cell line; 30 J/cm^2 at 630 nm): 87 µM
- EC50 (ATN-1 ATL cell line; 100 J/cm^2 at 630 nm): 84 µM
- EC50 (TL-Om1 ATL cell line; 10 J/cm^2 at 630 nm): 269 µM
- EC50 (TL-Om1 ATL cell line; 30 J/cm^2 at 630 nm): 141 µM
- EC50 (TL-Om1 ATL cell line; 100 J/cm^2 at 630 nm): 92 µM
- cell killing by PDT using 5-ALA ([1]; K562/ADR, doxorubicin-resistant cell line, FIG. 2): killed
- cell killing effect of PDT using 5-ALA relative to sensitive cell line ([1]; doxorubicin-resistant K562/ADR versus K562): comparable
- EC50 (MT-1 ATL cell line; 10 J/cm^2 at 630 nm): > 500 µM
- EC50 (MT-1 ATL cell line; 30 J/cm^2 at 630 nm): 202 µM
- EC50 (MT-1 ATL cell line; 100 J/cm^2 at 630 nm): 115 µM
- cell killing by PDT using 5-ALA (Hut102 ATL cell line; HuT102, mogamulizumab-resistant and tretinoin-resistant cell line, FIG. 1): killed
- EC50 (Hut102 ATL cell line; 10 J/cm^2 at 630 nm): 441 µM
- EC50 (Hut102 ATL cell line; 30 J/cm^2 at 630 nm): 277 µM
- EC50 (Hut102 ATL cell line; 100 J/cm^2 at 630 nm): 173 µM
- cell killing effect of PDT using 5-ALA relative to sensitive cell lines (Hut102 ATL cell line; mogamulizumab-resistant Hut102 versus the other sensitive cell lines (ATN-1, TL-Om1, MT-1)): at least comparable
- cell killing by PDT using 5-ALA ([2]; LAMA84-r, imatinib-resistant cell line, FIG. 2): killed
- cell killing effect of PDT using 5-ALA relative to sensitive cell line ([2]; imatinib-resistant LAMA84-r versus LAMA84-s): comparable
